Laboratory results: patent publication US10934274B2, “Quinoline derivatives as TAM RTK inhibitors” (Qurient Co., Ltd., priority 2015, dated 2021)

Tests used:
Axl = target: T1, Axl (Homo sapiens, UniProt P30530); assay: LanthaScreen Eu kinase binding assay, Axl; details: Tracer 236
T1 construct: purchased Life Technologies
T1 sequence (P30530 26-894): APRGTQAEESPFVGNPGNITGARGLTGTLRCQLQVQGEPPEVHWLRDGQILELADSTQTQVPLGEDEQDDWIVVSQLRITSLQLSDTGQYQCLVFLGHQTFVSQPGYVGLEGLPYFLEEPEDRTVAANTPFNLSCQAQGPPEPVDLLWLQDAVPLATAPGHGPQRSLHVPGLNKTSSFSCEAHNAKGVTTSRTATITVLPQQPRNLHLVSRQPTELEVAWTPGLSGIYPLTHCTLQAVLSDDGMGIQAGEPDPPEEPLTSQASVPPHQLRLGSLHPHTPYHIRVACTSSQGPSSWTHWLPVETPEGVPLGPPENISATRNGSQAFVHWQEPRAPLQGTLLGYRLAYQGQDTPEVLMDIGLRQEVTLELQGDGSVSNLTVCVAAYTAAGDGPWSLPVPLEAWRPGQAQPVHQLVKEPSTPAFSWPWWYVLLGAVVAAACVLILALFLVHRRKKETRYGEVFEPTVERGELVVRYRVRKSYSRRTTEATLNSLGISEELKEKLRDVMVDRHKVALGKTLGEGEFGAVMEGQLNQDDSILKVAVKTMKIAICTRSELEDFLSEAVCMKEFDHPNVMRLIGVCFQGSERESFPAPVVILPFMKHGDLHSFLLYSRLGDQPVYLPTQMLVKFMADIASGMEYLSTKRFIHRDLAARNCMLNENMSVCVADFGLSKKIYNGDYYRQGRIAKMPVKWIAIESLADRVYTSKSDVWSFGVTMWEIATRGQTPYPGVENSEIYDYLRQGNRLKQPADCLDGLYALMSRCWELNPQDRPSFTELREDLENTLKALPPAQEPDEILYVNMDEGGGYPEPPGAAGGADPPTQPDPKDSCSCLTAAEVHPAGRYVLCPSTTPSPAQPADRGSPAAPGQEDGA

Mer = target: T2, Mer (Homo sapiens, UniProt Q12866); assay: LanthaScreen Eu kinase binding assay, Mer; details: Tracer 236
T2 construct: purchased Life Technologies
T2 sequence (Q12866 21-999): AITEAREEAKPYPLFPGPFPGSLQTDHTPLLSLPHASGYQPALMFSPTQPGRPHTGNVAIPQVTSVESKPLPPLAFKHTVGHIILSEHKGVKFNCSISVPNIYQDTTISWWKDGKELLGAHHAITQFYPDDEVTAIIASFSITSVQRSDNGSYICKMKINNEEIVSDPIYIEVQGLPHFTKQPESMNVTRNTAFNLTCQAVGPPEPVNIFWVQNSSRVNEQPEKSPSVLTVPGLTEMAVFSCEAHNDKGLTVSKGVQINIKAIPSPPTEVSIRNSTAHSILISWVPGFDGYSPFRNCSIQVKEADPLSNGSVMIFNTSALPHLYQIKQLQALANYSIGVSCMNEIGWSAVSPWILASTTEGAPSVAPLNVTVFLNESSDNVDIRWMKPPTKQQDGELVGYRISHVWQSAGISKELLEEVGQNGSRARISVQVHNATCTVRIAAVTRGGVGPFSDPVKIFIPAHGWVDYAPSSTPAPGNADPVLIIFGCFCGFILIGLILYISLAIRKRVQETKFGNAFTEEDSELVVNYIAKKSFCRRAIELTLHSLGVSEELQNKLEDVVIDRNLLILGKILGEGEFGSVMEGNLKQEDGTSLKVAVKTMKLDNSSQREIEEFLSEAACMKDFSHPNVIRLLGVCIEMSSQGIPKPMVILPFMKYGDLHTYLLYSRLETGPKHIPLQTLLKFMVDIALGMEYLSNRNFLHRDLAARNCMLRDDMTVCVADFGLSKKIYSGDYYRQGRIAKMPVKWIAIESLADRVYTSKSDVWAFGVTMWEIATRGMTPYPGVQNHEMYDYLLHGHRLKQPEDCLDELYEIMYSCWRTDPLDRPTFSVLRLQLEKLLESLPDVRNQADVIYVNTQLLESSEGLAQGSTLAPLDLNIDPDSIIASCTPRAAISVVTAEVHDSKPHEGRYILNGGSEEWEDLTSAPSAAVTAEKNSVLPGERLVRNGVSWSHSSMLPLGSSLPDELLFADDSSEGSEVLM

Met = target: T3, Met (Homo sapiens, UniProt P08581); assay: LanthaScreen Eu kinase binding assay, Met; details: Tracer 236, read-out: cMet kinase binding activity (Kd)
T3 construct: purchased Life Technologies
T3 sequence (P08581 25-1390): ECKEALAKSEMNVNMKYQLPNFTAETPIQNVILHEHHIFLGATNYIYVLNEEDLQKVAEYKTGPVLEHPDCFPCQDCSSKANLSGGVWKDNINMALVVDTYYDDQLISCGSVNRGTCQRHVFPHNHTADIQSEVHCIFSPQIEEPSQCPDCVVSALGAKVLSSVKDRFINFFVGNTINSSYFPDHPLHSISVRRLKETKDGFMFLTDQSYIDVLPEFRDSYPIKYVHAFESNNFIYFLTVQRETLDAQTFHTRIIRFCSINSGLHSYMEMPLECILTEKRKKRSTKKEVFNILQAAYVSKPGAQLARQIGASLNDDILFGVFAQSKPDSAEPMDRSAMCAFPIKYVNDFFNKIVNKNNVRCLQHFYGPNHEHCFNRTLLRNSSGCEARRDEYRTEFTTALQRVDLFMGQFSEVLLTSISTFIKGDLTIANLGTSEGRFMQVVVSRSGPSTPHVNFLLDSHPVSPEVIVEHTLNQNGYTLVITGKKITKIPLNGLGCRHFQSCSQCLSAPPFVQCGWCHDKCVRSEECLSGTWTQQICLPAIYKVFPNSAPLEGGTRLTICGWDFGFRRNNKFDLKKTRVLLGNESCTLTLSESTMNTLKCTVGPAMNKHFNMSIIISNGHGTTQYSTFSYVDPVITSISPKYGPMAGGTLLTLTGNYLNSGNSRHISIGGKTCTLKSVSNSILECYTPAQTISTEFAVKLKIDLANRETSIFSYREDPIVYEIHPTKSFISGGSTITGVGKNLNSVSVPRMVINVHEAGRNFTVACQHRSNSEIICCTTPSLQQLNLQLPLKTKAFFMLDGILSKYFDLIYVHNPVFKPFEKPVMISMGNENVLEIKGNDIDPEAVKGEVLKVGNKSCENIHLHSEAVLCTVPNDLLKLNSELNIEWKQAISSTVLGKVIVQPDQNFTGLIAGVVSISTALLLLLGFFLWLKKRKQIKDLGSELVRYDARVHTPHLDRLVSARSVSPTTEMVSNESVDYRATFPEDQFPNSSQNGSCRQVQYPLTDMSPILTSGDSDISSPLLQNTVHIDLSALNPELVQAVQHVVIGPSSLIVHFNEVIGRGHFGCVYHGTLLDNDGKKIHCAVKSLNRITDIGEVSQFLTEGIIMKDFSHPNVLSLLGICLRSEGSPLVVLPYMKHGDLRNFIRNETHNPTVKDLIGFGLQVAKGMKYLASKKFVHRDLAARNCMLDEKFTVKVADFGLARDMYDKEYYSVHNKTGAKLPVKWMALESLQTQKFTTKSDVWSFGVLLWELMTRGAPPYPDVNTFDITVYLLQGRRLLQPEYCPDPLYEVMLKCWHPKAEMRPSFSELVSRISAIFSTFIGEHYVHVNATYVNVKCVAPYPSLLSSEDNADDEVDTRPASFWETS

Row | Compound | Kd (Axl) [nM] | Kd (Mer) [nM] | Kd (Met) [nM]
1 | CCOc1cn(-c2ccc(Cl)cc2F)nc1C(=O)Nc1ccc(Oc2ccnc3cc(OC)c(OC)cc23)cn1 [Compound 106] | < 100 | < 100 | < 100
2 | CCOc1cn(-c2ccc(OC(F)(F)F)cc2Cl)nc1C(=O)Nc1ccc(Oc2ccnc3cc(OC)c(OC(F)(F)F)cc23)cn1 [Compound 201] | ≥ 1000 | 100 to 1000 | 100 to 1000
3 | CCOc1cn(-c2ccc(Cl)cc2Cl)nc1C(=O)Nc1ccc(Oc2ccnc3cc(OC)c(OC)cc23)cn1 [Compound 108] | < 100 | < 100 | ≥ 1000
4 | CCOc1cn(-c2ccc(OC(F)(F)F)cc2Cl)nc1C(=O)Nc1ccc(Oc2ccnc3cc(OC)c(OC)cc23)cn1 [Compound 115] | < 100 | < 100 | < 100
5 | COc1cc2nccc(Oc3ccc(NC(=O)c4nn(-c5ccc(OC(F)(F)F)cc5Cl)cc4OCC(F)(F)F)nc3)c2cc1OC [Compound 186] | 100 to 1000 | < 100 | 100 to 1000
6 | CCOc1cn(-c2ccc(F)cc2CC)nc1C(=O)Nc1ccc(Oc2ccnc3cc(OC)c(OC)cc23)cn1 [Compound 112] | < 100 | < 100 | < 100
7 | CCOc1cn(-c2ncc(Cl)cc2C#N)nc1C(=O)Nc1ccc(Oc2ccnc3cc(OC)c(OC)cc23)cn1 [Compound 133] | < 100 | < 100 | < 100
8 | CCOc1cn(-c2ccc(C(F)(F)F)cc2F)nc1C(=O)Nc1ccc(Oc2ccnc3cc(OC)c(OC)cc23)cn1 [Compound 114] | < 100 | < 100 | < 100
9 | CCOc1cn(-c2ccc(C(C)C)cc2F)nc1C(=O)Nc1ccc(Oc2ccnc3cc(OC)c(OC)cc23)cn1 [Compound 127] | < 100 | < 100 | < 100
10 | CCOc1cn(-c2ccc(C(F)(F)F)cc2C)nc1C(=O)Nc1ccc(Oc2ccnc3cc(OC)c(OC)cc23)cn1 [Compound 99] | < 100 | < 100 | ≥ 1000
11 | CCOc1cn(-c2ncn(C)n2)nc1C(=O)Nc1ccc(Oc2ccnc3cc(OC)c(OC)cc23)cn1 [Compound 165] | < 100 | < 100 | < 100
12 | CCOc1cn(-c2cnccc2C)nc1C(=O)Nc1ccc(Oc2ccnc3cc(OC)c(OC)cc23)cc1F [Compound 151] | < 100 | < 100 | < 100
13 | CCOc1cn(-c2ccc(OC(F)(F)F)cc2F)nc1C(=O)Nc1ccc(Oc2ccnc3cc(OC)c(OC)cc23)cn1 [Compound 120] | < 100 | < 100 | 100 to 1000
14 | CCOc1cn(-c2nccs2)nc1C(=O)Nc1ccc(Oc2ccnc3cc(OC)c(OC)cc23)cn1 [Compound 12] | < 100 | < 100 | 100 to 1000
15 | CCOc1cn(-c2ccc(C)cc2F)nc1C(=O)Nc1ccc(Oc2ccnc3cc(OC)c(OC)cc23)cn1 [Compound 100] | < 100 | < 100 | 100 to 1000
16 | CCOc1cn(-c2cnccc2C(C)(C)O)nc1C(=O)Nc1ccc(Oc2ccnc3cc(OC)c(OC)cc23)cc1F [Compound 197] | < 100 | < 100 | < 100
17 | CCOc1cn(-c2nccnc2C(F)(F)F)nc1C(=O)Nc1ccc(Oc2ccnc3cc(OC)c(OC)cc23)cn1 [Compound 162] | < 100 | < 100 | < 100
18 | CCOc1cn(-c2ccc(C(F)(F)F)cc2C(F)(F)F)nc1C(=O)Nc1ccc(Oc2ccnc3cc(OC)c(OC)cc23)cn1 [Compound 105] | < 100 | < 100 | < 100
19 | CCOc1cn(-c2ccc(Cl)cc2CC)nc1C(=O)Nc1ccc(Oc2ccnc3cc(OC)c(OC)cc23)cn1 [Compound 111] | < 100 | < 100 | < 100
20 | CCOc1cn(-c2noc(C)n2)nc1C(=O)Nc1ccc(Oc2ccnc3cc(OC)c(OC)cc23)cn1 [Compound 161] | < 100 | < 100 | < 100
21 | CCOc1cn(-c2c(C)ccnc2C)nc1C(=O)Nc1ccc(Oc2ccnc3cc(OC)c(OC)cc23)cn1 [Compound 132] | < 100 | < 100 | < 100
